The results in this text go back to US7947726B2, “Non-steroidal ligands for the glucocorticoid receptor, and compositions thereof” (The Regents of the University of California, priority 2002, dated 2011).

Assay [1] addresses T1, glucocorticoid receptor (GR) (Homo sapiens, UniProt P04150).
T1 construct: purchased Panvera Corp, Madison, Wis
T1 sequence (P04150 1-777): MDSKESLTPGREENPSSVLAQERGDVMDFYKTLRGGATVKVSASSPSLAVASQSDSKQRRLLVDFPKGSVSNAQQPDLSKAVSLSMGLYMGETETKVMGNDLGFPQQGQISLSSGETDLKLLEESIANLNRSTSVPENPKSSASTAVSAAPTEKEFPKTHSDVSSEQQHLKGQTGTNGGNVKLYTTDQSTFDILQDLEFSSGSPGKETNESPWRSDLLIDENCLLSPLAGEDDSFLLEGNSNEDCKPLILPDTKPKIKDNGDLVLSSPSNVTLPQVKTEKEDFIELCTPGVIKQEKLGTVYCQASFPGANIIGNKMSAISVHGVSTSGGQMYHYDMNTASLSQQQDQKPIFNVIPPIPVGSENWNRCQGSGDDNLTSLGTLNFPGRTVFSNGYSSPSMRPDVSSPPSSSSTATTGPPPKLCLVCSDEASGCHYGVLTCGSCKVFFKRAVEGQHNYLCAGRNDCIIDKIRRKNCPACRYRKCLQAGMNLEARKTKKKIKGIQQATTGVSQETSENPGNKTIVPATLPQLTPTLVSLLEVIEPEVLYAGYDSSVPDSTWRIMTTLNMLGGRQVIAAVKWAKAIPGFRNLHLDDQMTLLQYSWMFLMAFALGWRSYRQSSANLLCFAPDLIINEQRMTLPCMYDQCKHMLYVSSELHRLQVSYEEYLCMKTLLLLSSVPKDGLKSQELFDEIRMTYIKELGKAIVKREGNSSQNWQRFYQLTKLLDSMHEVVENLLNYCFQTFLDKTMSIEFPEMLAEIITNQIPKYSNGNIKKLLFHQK
The assay is described as follows: Glucocorticoid Receptor Competitor Assay Kit (Panvera) ligand binding. The note with it: for GR Binding RBA (dexamethasone = 100): Table 1; for GR Binding RBA (dexamethasone = 100) / GR binding RBA (dex = 100): relative binding affinity, dexamethasone = 100; for GR binding RBA (dex = 100): Table 3. The text has this:
The Glucocorticoid Receptor Competitor Assay Kit (Panvera Corp, Madison, Wis.) was used for ligand binding studies. The recommended room temperature protocol was followed for all assayed ligands.

Assay [2] has as its target T2, GR (Homo sapiens, UniProt P04150).
T2 construct: expressed in transfected cells; host or cells: CV-1 cells, transient transfection (plasmid a gift of Keith Yamamoto, UCSF)
T2 sequence (P04150 1-777): T1 sequence (P04150 1-777)
The assay is described as follows: GRE (TAT3-Luc) activation luciferase assay in CV-1 cells transfected with GR. The format is cell-based. The method, then:
Cells were plated into tissue culture treated, 96 well flat bottom plates (25,000 cells/well), and incubated for 12 h at 37° C. Cells were then transfected using the Lipofectamine PLUS transfection reagent (Gibco BRL). DNA-lipid complexes of 5 ng GR, 50 ng TAT3-Luc, 7.5 ng β-galactosidase, 1 μL-well PLUS reagent and 0.67 μL-well lipofectamine in 50 μL/well serum free media were added to cells and incubated for 4 h at 37° C. Complexes were removed and hormones diluted in 5% charcoal-stripped FBS were added to the cells, which were then incubated for 24 hours at 37° C. Media was removed and the cells were washed with 100 μL Ca^+2, Mg^+2 free phosphate buffered saline (PBS). Lysis was achieved by adding 50 μL of Passive Lysis Buffer (Promega Corp, Madison, Wis.) and shaking the plate for 15 min. 15 μL of this lysate was then used to assay β-galactosidase activity (β-galactosidase enzyme assay system, Promega Corp., recommended procedures followed). The Luciferase Assay System (Promega Corp.) was used to assay luciferase activity. 100 μL of luciferase assay reagent was added rapidly to the plate and luminescence was measured for 10 ms/well on an Analyst AD Detection System (LJL Biosystems, Sunnyvale, Calif.).

Assay [3] has as its target T3, GR (Rattus norvegicus, UniProt P06536).
T3 construct: expressed in transfected cells; gift of Keith Yamamoto
T3 sequence (P06536 1-795): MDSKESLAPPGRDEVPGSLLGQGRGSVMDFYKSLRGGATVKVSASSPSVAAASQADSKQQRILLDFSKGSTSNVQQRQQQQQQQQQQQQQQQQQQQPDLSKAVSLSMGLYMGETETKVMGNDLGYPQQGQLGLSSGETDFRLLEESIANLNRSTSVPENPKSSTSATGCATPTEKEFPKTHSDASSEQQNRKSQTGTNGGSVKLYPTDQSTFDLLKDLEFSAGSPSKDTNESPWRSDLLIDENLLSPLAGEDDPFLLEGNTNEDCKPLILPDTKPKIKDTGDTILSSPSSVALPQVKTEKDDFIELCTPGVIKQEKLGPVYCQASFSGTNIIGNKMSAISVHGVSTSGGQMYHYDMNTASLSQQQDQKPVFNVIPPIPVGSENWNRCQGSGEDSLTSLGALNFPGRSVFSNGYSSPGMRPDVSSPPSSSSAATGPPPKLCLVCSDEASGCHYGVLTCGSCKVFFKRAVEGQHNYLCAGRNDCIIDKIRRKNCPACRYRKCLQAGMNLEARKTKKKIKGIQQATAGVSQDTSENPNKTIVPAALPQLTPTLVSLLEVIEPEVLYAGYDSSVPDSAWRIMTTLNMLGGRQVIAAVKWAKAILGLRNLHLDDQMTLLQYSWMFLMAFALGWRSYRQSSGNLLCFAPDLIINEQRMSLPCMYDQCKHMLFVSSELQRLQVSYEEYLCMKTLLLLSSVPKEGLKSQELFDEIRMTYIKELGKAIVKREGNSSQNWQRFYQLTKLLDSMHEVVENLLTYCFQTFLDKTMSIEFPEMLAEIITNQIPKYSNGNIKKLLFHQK
The assay is described as follows: AP-1 repression luciferase assay in U2OS cells stably transfected with rat GR. The format is cell-based. The note with it: Table 5, TPA-stimulated U2OS cells; for EC50: read-out: Repression AP-1 pot (EC50); for Emax: U2OS, 12 h, read-out: Repression AP-1 % max repression. The method, then:
For API repression assays, U2OS cells stably transfected with rat GR were grown in similar media as for CV-1 cells with the exception of the FBS concentration, which was 10% and the only antibiotic was […]. Cells were plated and transfected in a similar fashion, except for plasmids, which in this case were 50 ng/well AP1-Luc and 10 ng/well β-galactosidase. Post-transfection, cells were incubated with either 50 ng/mL TPA (Phorbol 12-myristate 13-acetate), or 50 ng/mL TPA and various hormone dilutions in 10% charcoal treated FBS media. The cells were incubated for 12 h, and the lysis, β-galactosidase assay, and luciferase assay were performed as previously described.

In a further assay the test system is Coll A. The assay is described as follows: Coll A repression. Format: cell-based. The note with it: for EC50: read-out: Repression Coll A pot (EC50); for Emax: read-out: Repression Coll A % max repression.
[4] abbreviates: Table 2, read-out: GR Binding (IC50).
[5] abbreviates: read-out: IC50 in a GR binding assay.
Setting [6] is: Table 4, read-out: GR pot (EC50).

Molecules are shown by their SMILES. Like-named read-outs stand apart in the source and are kept apart here.

For `Cc1cc(O)cc(C)c1C(=O)C1CCCC2=Cc3c(cnn3-c3ccc(F)cc3)CC21C` (centres unmarked) [Compound 228, 4-{[1-(4-Fluoro-phenyl)-4a-methyl-4,4a,5,6,7,8-hexahydro-1H-benzo[f]indazol-5-yl]-keto-methyl}-3,5-dimethyl-phenol], the “GR Binding RBA (dexamethasone = 100)” value in assay [1] came out at 16.

With `Cc1cc(O)cc(C)c1CC1CCCC2=Cc3c(cnn3-c3ccc(F)cc3)CC21C` (centres unmarked) [Compound 230, 4-{[1-(4-Fluoro-phenyl)-4a-methyl-4,4a,5,6,7,8-hexahydro-1H-benzo[f]indazol-5-yl]-methyl}-3,5-dimethyl-phenol], the “GR Binding RBA (dexamethasone = 100)” value in assay [1] turned out to be 22.

For `COc1ccc2[nH]c3c(c2c1)CCC1=Cc2c(cnn2-c2ccc(F)cc2)CC13C` (centres unmarked) [Compound 265, 3-(4-fluoro-phenyl)-8-methoxy-11b-methyl-5,6,12-trihydro-indazolo[5,6-a]carbazole], the IC50 – broadly, the concentration at which inhibition is half-maximal – in assay [1] (setting [4]) came out at 239 nM.

Consider `COCOC(c1c(C)cc(O)cc1C)C1CCCC2=Cc3c(cnn3-c3ccc(F)cc3)CC21C` (centres unmarked) [Compound 232, 4-{[1-(4-Fluoro-phenyl)-4a-methyl-4,4a,5,6,7,8-hexahydro-1H-benzo[f]indazol-5-yl]-methoxymethoxy-methyl}-3,5-dimethyl-phenol], for which the “GR Binding RBA (dexamethasone = 100)” value in assay [1] came out at 26. Besides, the EC50 (commonly the concentration that produces a half-maximal response) at GR [2] (Table 1, read-out: GR pot(EC50)) worked out at 82 nM.

On to `CC12Cc3cnn(-c4cccc(C#Cc5ccccc5)c4)c3C=C1CCCC2=O` (centres unmarked) [Compound 261, 4a-Methyl-1-(3-phenylethynyl-phenyl)-1,4,4a,6,7,8-hexahydro-benzo[f]indazol-5-one], for which the IC50 in assay [1] (setting [5]) is 174 nM.

For the molecule `CC12Cc3cnn(-c4ccc(F)cc4)c3C=C1CCCC2=O` (centres unmarked) [Compound 205, 1-(4-Fluoro-phenyl)-4a-methyl-1,4,4a,6,7,8-hexahydro-benzo[f]indazol-5-one], the IC50 in assay [1] (setting [5]) is 436 nM.

As for `Cc1cc(C(O)C2CCCC3=Cc4c(cnn4-c4ccc(F)cc4)CC32C)ccc1O` (centres unmarked) [Compound 235, 4-{[1-(4-Fluoro-phenyl)-4a-methyl-4,4a,5,6,7,8-hexahydro-1H-benzo[f]indazol-5-yl]-hydroxy-methyl}-2-methyl-phenol], the “GR binding RBA (dex = 100)” value in assay [1] is listed as 110. On GR [3], the 50% effective concentration (EC50) is 16.6 nM and the Emax was found to be 74%. The “GRE activation max fold activation” value at GR [2] (Table 4, fold) is on record as 76. For the same molecule, the 50% effective concentration (EC50) at GR [2] (setting [6]) was determined as 81 nM.

For the molecule `CC12Cc3cnn(-c4ccc(F)cc4)c3C=C1CCC(=Cc1c3ccccc3cc3ccccc13)C2=O` (centres unmarked) [Compound 269, 6-Anthracen-9-ylmethylene-1-(4-fluoro-phenyl)-4a-methyl-1,4,4a,6,7,8-hexahydro-benzo[f]indazol-5-one], in assay [1] (setting [4]), the IC50 amounted to 43 nM. For the same molecule, the EC50 in the assay on Coll A (Table 2) was over 5000 nM; at GR [2] (Table 2, read-out: GRE Activation GR pot (EC50)), over 5000 nM.

As for `COc1cc(C(O)C2CCCC3=Cc4c(cnn4-c4ccc(F)cc4)CC32C)cc(OC)c1OC` (centres unmarked) [Compound 223, [1-(4-Fluoro-phenyl)-4a-methyl-4,4a,5,6,7,8-hexahydro-1H-benzo[f]indazol-5-yl]-(3,4,5-trimethoxyphenyl)-methanol], in assay [1], the “GR binding RBA (dex = 100)” value worked out at 47. Also, on GR [3], the EC50 is 6.7 nM and the Emax was determined as 74%. Also, the “GRE activation max fold activation” value on GR [2] (Table 4, fold) is recorded as 32 ± 2. Also, the EC50 at GR [2] (setting [6]) stood at 143 ± 27 nM.

Turning to `CC12Cc3cnn(-c4ccc(F)cc4)c3C=C1CCc1c2[nH]c2ccc(F)cc12` (centres unmarked) [Compound 267, 3-(4-fluoro-phenyl)-8-fluoro-11b-methyl-5,6,12-trihydro-indazolo[5,6-a]carbazole], the IC50 in assay [1] (setting [4]) was 130 nM. Further, in the assay with Coll A (Table 2), the Emax was determined as 75% and the EC50 was determined as 100 nM. Besides, at GR [2] (Table 2, fold), the “GRE Activation Max fold activation” value worked out at 18.

For `CC12Cc3cnn(-c4ccc(F)cc4)c3C=C1CCCC2C(O)c1cc2ccccc2c2ccccc12` (centres unmarked) [Compound 259, [1-(4-Fluoro-phenyl)-4a-methyl-4,4a,5,6,7,8-hexahydro-1H-benzo[f]indazol-5-yl]-phenanthren-9-yl-methanol], in assay [1], the “GR binding RBA (dex = 100)” value stood at 72. Moreover, in the assay on Coll A (Table 5), the Emax turned out to be 73%. The results for the EC50 in the assay with Coll A (Table 5) and at GR [2] (setting [6]) were 783 nM and over 5000 nM, respectively.

In the case of `CC12Cc3cnn(-c4ccc(F)cc4)c3C=C1CCc1c2[nH]c2ccc(Br)cc12` (centres unmarked) [Compound 263, 3-(4-fluoro-phenyl)-8-bromo-11b-methyl-5,6,12-trihydro-indazolo[5,6-a]carbazole], in assay [1] (setting [4]), the IC50 came out at 708 nM.
